From patent publication EP4563146A1 (IRBM S.P.A., priority 2023, dated 2025) come the findings set out here.

The target in experiment [1] is T1, West Nile Virus (WNV) NS2B-NS3 protease (West Nile virus, UniProt Q9Q6P4).
T1 construct: NS2B1423-1470); purchased R&D 2907-SE-020
Briefly: WNV protease inhibition assay. The experiment is classed as biochemical. The note with it: Table 4; letter codes for IC50. An excerpt:
WNV protease inhibition assay

Experiment [2] addresses Japanese encephalitis virus (JEV)-NS2B-NS3 protease (Japanese encephalitis virus, UniProt P32886, DEL1469-1493). Briefly: JEV protease inhibition assay. Format: biochemical.
A further experiment deals with ZIKV replicon. Briefly: ZIKV replication inhibition assay (NanoLuc replicon in Vero cells). The conditions noted are these: read-out: ZIKA Cell_Nanoluc, 72 h.
The mark [3] stands for this setting: 600 nM enzyme, 10 µM Pyr-RTKR-AMC substrate, 25 °C, read-out: JEV - NS3 protease.
Where [4] appears, read: Vero cells with stable ZIKV replicon, Nano-Glo readout.
[5] abbreviates: read-out: JEV - NS3 protease, 600 nM enzyme, 10 µM Pyr-RTKR-AMC substrate, 25 °C.

Like-named read-outs stand apart in the source and are kept apart here. Some results are limits rather than exact numbers.

Regarding “((3-Cyclopropyl-5-(2-(phenylsulfonyl)-acetamido)phenyl)carbamoyl)(3-((1R,4R)-4-((dimethylamino)methyl)cyclohexyl)-1,2,3-oxadiazol-3-ium-5-yl)amide [Example 150]”, the IC50 is less than 0.1 µM in experiment [1] and 1 to 20 µM in experiment [2] (setting [3]). The EC50 in the experiment with ZIKV replicon (setting [4]) was in the range of 1 to 20 µM.
Turning to `CN(C)C[C@H]1CC[C@H]([n+]2cc([N-]C(=O)Nc3cc(NC(=O)Cc4ccccc4)cc(C(F)(F)F)c3)on2)CC1` [Example 147, (3-((1R,4R)-4-((Dimethylamino)methyl)-cyclohexyl)-1,2,3-oxadiazol-3-ium-5-yl)((3-(2-phenylacetamido)-5-(trifluoromethyl)phenyl)-carbamoyl)amide], the IC50 is less than 0.1 µM in experiment [1] and 1 to 20 µM in experiment [2] (setting [3]). In the experiment on ZIKV replicon (Zika virus, Vero), the EC50 is 1 to 20 µM.
The compound `O=C([N-]c1c[n+](C[C@H]2CC[C@@H](CNCC(F)(F)F)CC2)no1)Nc1cc(N2CCC(c3ccccc3)C2=O)cc(C(F)(F)F)c1` (stereo partly shown) [Example 139, ((3-(2-Oxo-3-phenylpyrrolidin-1-yl)-5-(trifluoromethyl)phenyl)carbamoyl)(3-(((1s,4s)-4-(((2,2,2-trifluoroethyl)amino)methyl)cyclohexyl)-methyl)-1,2,3-oxadiazol-3-ium-5-yl)amide] returned an IC50 in experiment [2] greater than 20 µM. Besides, the EC50 with ZIKV replicon (Zika virus, Vero) lay in the range of 1 to 20 µM.
For `CN(C)C[C@H]1CC[C@H]([n+]2cc([N-]C(=O)Nc3cc(NC(=O)Cc4ccc5c(c4)OCO5)cc(C(F)(F)F)c3)on2)CC1` [Example 154, ((3-(2-(Benzo[d][1,3]dioxol-5-yl)acetamido)-5-(trifluoromethyl)phenyl)carbamoyl)(3-((1R,4R)-4-((dimethylamino)methyl)cyclohexyl)-1,2,3-oxadiazol-3-ium-5-yl)amide], the values for the IC50 in experiment [1] and in experiment [2] (setting [3]) were 1 to 20 µM and greater than 20 µM, respectively. Moreover, in the experiment with ZIKV replicon (setting [4]), the EC50 was greater than 20 µM.
For the compound `COc1ncc(-c2ccc(C[n+]3cc([N-]C(=O)Nc4cc(NC(=O)c5ccccc5)cc(C(F)(F)F)c4)on3)cc2)c(C)n1` [Example 15], the IC50 in experiment [2] (setting [5]) lay within 1 to 20 µM. For the same compound, the EC50 with ZIKV replicon (Zika virus, Vero) was in the range of 0.1 to 1 µM.
As for `CN(C)[C@H]1CC[C@@H]([n+]2cc([N-]C(=O)Nc3cc(NC(=O)Cc4ccccc4)cc(C(F)(F)F)c3)on2)CC1` [Example 95, (3-((1S,4S)-4-(Dimethylamino)cyclohexyl)-1,2,3-oxadiazol-3-ium-5-yl)((3-(2-phenylacetamido)-5-(trifluoromethyl)phenyl)-carbamoyl)amide], the IC50 in experiment [2] fell in the range of 1 to 20 µM. In addition, in the experiment with ZIKV replicon (Zika virus, Vero), the EC50 was in the range of 1 to 20 µM.
Take `COc1ncc(-c2ccc(C[n+]3cc([N-]C(=O)Nc4cc(NC(=O)Cc5ccc(Cl)cc5)cc(C(F)(F)F)c4)on3)cc2)c(C)n1` [Example 17]: in experiment [2] (setting [5]), the IC50 is greater than 20 µM. For the same compound, the EC50 in the experiment on ZIKV replicon (Zika virus, Vero) lay in the range of 1 to 20 µM.
Regarding `NC[C@H]1CC[C@@H]([n+]2cc([N-]C(=O)Nc3cc(NC(=O)Cc4ccccc4)cc(C(F)(F)F)c3)on2)CC1` [Example 59, (3-((1S,4S)-4-(Aminomethyl)cyclohexyl)-1,2,3-oxadiazol-3-ium-5-yl)((3-(2-phenyl-acetamido)-5-(trifluoromethyl)phenyl)-carbamoyl)amide], the IC50 in experiment [2] was in the range of 1 to 20 µM. For the same compound, in the experiment with ZIKV replicon (Zika virus, Vero), the EC50 lay within 1 to 20 µM.
